Assay results taken from paper PMC12637020, “Synthesis and biological evaluation of novel hydrazone derivatives for the treatment of Alzheimer's disease” (RSC Advances, 2025).

Assays:
[1] = target: AChE enzyme (Homo sapiens, UniProt P22303); test: biochemical; type: biochemical; conditions: for inhibition at 1000 µM: read-out: AChE% inhibition 10^−3 M; for inhibition at 100 µM: read-out: AChE% inhibition 10^−4 M; for IC50: tested at 10 to 0.001 µM
From the text: (§1) The assay was completed in two steps.
(§2) The potential inhibitory effects of the obtained molecules on the AChE and BChE enzymes was examined using a variation of the Ellman method.[31,33,41–43] Distilled water from the Millipore/Milli-Q purification apparatus was utilized at every stage of the biological activity investigations during the evaluation process. In less than a week, all the solutions required for the biological investigation were meticulously prepared from scratch. A “BioTek-Precision Power (United States)” robotic pipetting system was utilized to distribute the prepared solutions and apply the test compounds and enzyme–substrate solutions to 96-well plates. The “BioTek-Synergy H1 Microplate Reader (United States)” was employed to establish and follow the enzyme protocol for spectrophotometric measurements. Solutions of the compounds were prepared at two different concentrations, 10^−3 M and 10^−4 M, using dimethylsulfoxide (DMSO) as 2% solution, and these were used in biological activity studies.

[2] = target: BChE enzyme (Homo sapiens, UniProt P06276); test: biochemical; conditions: for inhibition at 1000 µM: read-out: BChE% inhibition 10^−3 M; for inhibition at 100 µM: read-out: BChE% inhibition 10^−4 M
From the text: as §1, §2

Chain of AChE enzyme (P22303 32-614): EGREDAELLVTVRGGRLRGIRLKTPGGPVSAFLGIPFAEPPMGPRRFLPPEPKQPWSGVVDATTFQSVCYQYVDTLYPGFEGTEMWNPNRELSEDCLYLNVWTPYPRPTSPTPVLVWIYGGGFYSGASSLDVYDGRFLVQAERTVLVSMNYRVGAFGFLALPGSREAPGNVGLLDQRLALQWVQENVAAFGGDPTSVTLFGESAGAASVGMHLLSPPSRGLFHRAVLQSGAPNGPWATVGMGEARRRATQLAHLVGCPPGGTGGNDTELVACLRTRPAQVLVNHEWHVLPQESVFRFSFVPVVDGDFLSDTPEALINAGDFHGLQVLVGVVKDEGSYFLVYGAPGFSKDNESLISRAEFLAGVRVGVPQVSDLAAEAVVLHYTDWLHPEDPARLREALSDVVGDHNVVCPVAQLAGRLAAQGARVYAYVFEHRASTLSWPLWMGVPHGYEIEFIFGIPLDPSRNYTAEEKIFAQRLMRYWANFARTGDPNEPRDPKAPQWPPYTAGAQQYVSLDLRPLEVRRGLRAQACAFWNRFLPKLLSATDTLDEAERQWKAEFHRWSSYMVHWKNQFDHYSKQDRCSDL
Chain of BChE enzyme (P06276 29-602, species assumed): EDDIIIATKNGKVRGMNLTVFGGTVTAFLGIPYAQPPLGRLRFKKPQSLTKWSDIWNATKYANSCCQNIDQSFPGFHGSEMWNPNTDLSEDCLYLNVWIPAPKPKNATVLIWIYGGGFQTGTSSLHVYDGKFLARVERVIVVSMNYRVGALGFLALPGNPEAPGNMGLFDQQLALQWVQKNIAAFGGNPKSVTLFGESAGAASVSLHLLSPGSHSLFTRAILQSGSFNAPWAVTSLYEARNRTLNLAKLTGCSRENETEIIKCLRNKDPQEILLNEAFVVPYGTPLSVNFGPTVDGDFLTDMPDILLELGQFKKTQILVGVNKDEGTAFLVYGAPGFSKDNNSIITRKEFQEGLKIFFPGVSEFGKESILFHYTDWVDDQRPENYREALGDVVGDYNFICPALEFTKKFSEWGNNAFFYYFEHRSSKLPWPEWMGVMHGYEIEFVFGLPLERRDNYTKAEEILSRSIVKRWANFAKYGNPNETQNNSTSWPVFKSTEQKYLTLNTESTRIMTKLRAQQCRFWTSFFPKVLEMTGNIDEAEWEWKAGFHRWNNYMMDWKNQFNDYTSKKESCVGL

Structure (SMILES) | inhibition at 1000 µM [1] [%] | inhibition at 100 µM [1] [%] | IC50 [1] [µM] | IC50 [2] [µM] | inhibition at 1000 µM [2] [%] | inhibition at 100 µM [2] [%] | inhibitory activity ([1]; at concentrations of 1000 and 100 µM)
CC(=NN=c1scc(-c2ccc(C)cc2)n1C)c1ccc(N2CCCCC2)cc1 [D1a, 3-Methyl-2-((1-(4-(piperidin-1-yl)phenyl)ethylidene)hydrazineylidene)-4-(p-tolyl)-2,3-dihydrothiazole] | 40.5 ± 1.92 | 36.5 ± 1.72 | > 1000 | > 1000 | 32.5 ± 1.06 | 20.4 ± 0.984 | 
CC(=NN=c1scc(-c2ccc(F)cc2)n1C)c1ccc(N2CCCCC2)cc1 [D1b, 4-(4-Fluorophenyl)-3-methyl-2-((1-(4-(piperidin-1 yl)phenyl)ethylidene)hydrazineylidene)-2,3-dihydrothiazole] | 37.2 ± 1.54 | 31.1 ± 1.36 | > 1000 | > 1000 | 30.2 ± 0.936 | 19.6 ± 0.864 | 
CC(=NN=c1scc(-c2ccc(Cl)cc2)n1C)c1ccc(N2CCCCC2)cc1 [D1d, 4-(4-Chlorophenyl)-3-methyl-2-((1-(4-(piperidin-1-yl)phenyl)ethylidene)hydrazineylidene)-2,3-dihydrothiazole] | 55.7 ± 2.08 | 29.6 ± 1.23 | > 100 | > 1000 | 23 ± 0.725 | 15.2 ± 0.734 | 
COc1ccc(-c2csc(=NN=C(C)c3ccc(N4CCCCC4)cc3)n2C)cc1 [D1e, 4-(4-Methoxyphenyl)-3-methyl-2-((1-(4-(piperidin-1-yl)phenyl)ethylidene)hydrazineylidene)-2,3-dihydrothiazole] | 92.6 ± 1.8 | 84.1 ± 2.15 | 0.613 ± 0.025 | > 1000 | 27.6 ± 1.08 | 17.9 ± 0.71 | more than 50%
CC(=NN=c1scc(-c2ccc(Cl)cc2Cl)n1C)c1ccc(N2CCCCC2)cc1 [D1g, 4-(2,4-Dichlorophenyl)-3-methyl-2-((1-(4-(piperidin-1-yl)phenyl)ethylidene)hydrazineylidene)-2,3-dihydrothiazole] | 63.5 ± 1.96 | 16.9 ± 0.778 | > 100 | > 1000 | 36.3 ± 1.56 | 31.1 ± 1.07 | 
CC(=NN=c1scc(-c2ccc(Cl)c(Cl)c2)n1C)c1ccc(N2CCCCC2)cc1 [D1h, 4-(3,4-Dichlorophenyl)-3-methyl-2-((1-(4-(piperidin-1-yl)phenyl)ethylidene)hydrazineylidene)-2,3-dihydrothiazole] | 27.6 ± 1.18 | 14.7 ± 0.646 | > 1000 | > 1000 | 31.5 ± 1.31 | 24.3 ± 0.925 | 
CC(=NN=c1scc(-c2ccc(C)cc2C)n1C)c1ccc(N2CCCCC2)cc1 [D1i, 4-(2,4-Dimethylphenyl)-3-methyl-2-((1-(4-(piperidin-1-yl)phenyl)ethylidene)hydrazineylidene)-2,3-dihydrothiazole] | 59.3 ± 1.29 | 13.7 ± 0.52 | > 100 | > 1000 | 40.9 ± 1.86 | 29.5 ± 0.846 | 
C=CCn1c(-c2ccc(C)cc2)csc1=NN=C(C)c1ccc(N2CCCCC2)cc1 [D2a, 3-Allyl-2-((1-(4-(piperidin-1-yl)phenyl)ethylidene)hydrazineylidene)-4-(p-tolyl)-2,3-dihydrothiazole] | 38.6 ± 1.35 | 30.1 ± 1.45 | > 1000 | > 1000 | 30.8 ± 1.07 | 20.9 ± 0.802 | 
C=CCn1c(-c2ccc(F)cc2)csc1=NN=C(C)c1ccc(N2CCCCC2)cc1 [D2b, 3-Allyl-4-(4-fluorophenyl)-2-((1-(4-(piperidin-1yl)phenyl)ethylidene)hydrazineylidene)-2,3-dihydrothiazole] | 47.2 ± 2.17 | 41.7 ± 1.96 | > 1000 | > 1000 | 38.2 ± 1.66 | 27.4 ± 1.25 | 
C=CCn1c(-c2ccc([N+](=O)[O-])cc2)csc1=NN=C(C)c1ccc(N2CCCCC2)cc1 [D2c, 3-Allyl-4-(4-nitrophenyl)-2-((1-(4-(piperidin-1-yl)phenyl)ethylidene)hydrazineylidene)-2,3-dihydrothiazole] | 67 ± 1.85 | 31.4 ± 0.932 | > 100 | > 1000 | 35 ± 1.14 | 30.7 ± 1.15 | 
C=CCn1c(-c2ccc(Cl)cc2)csc1=NN=C(C)c1ccc(N2CCCCC2)cc1 [D2d, 3-Allyl-4-(4-chlorophenyl)-2-((1-(4-(piperidin-1 yl)phenyl)ethylidene)hydrazineylidene)-2,3-dihydrothiazole] | 31.2 ± 1.32 | 28 ± 0.884 | > 1000 | > 1000 | 30.5 ± 1.03 | 20 ± 0.926 | 
C=CCn1c(-c2ccc(OC)cc2)csc1=NN=C(C)c1ccc(N2CCCCC2)cc1 [D2e, 3-Allyl-4-(4-methoxyphenyl)-2-((1-(4-(piperidin-1-yl)phenyl)ethylidene)hydrazineylidene)-2,3-dihydrothiazole] | 39.6 ± 1.76 | 25.3 ± 1.06 | > 1000 | > 1000 | 25.7 ± 0.963 | 17.2 ± 0.634 | 
C=CCn1c(-c2ccc(C#N)cc2)csc1=NN=C(C)c1ccc(N2CCCCC2)cc1 [D2f, 4-(3-Allyl-2-((1-(4-(piperidin-1-yl)phenyl)ethylidene)hydrazineylidene)-2,3-dihydrothiazol-4-yl)benzonitrile] | 76 ± 2.28 | 29.8 ± 1.26 | > 100 | > 1000 | 21.9 ± 0.855 | 16.5 ± 0.578 | 
C=CCn1c(-c2ccc(Cl)cc2Cl)csc1=NN=C(C)c1ccc(N2CCCCC2)cc1 [D2g, 3-Allyl-4-(2,4-dichlorophenyl)-2-((1-(4-(piperidin-1-yl)phenyl)ethylidene)hydrazineylidene)-2,3-dihydrothiazole] | 39.7 ± 1.88 | 31.6 ± 1.47 | > 1000 | > 1000 | 29.3 ± 1.35 | 24 ± 1.07 | 
C=CCn1c(-c2ccc(Cl)c(Cl)c2)csc1=N/N=C(\C)c1ccc(N2CCCCC2)cc1 [D2h, 3-Allyl-4-(3,4-dichlorophenyl)-2-(((E)-1-(4-(piperidin-1-yl)phenyl)ethylidene)hydrazineylidene)-2,3-dihydrothiazole] | 31.5 ± 1.04 | 20.3 ± 0.989 | > 1000 | > 1000 | 36.2 ± 1.36 | 31.5 ± 0.963 | 
C=CCn1c(-c2ccc(C)cc2C)csc1=N/N=C(\C)c1ccc(N2CCCCC2)cc1 [D2i, 3-Allyl-4-(2,4-dimethylphenyl)-2-(((E)-1-(4-(piperidin-1-yl)phenyl)ethylidene)hydrazineylidene)-2,3-dihydrothiazole] | 28.1 ± 1.25 | 20.5 ± 0.862 | > 1000 | > 1000 | 42.1 ± 2.02 | 28.7 ± 1.12 | 
CCn1c(-c2ccc(C)cc2)csc1=NN=C(C)c1ccc(N2CCCCC2)cc1 [D3a, 3-Ethyl-2-((1-(4-(piperidin-1-yl)phenyl)ethylidene)hydrazineylidene)-4-(p-tolyl)-2,3-dihydrothiazole] | 56.2 ± 1.75 | 37.5 ± 0.921 | > 100 | > 1000 | 45.4 ± 2.09 | 25.3 ± 1 | 
